According to patent publication US12077503B2, “Substituted cyclic amides and their use as herbicides” (FMC CORPORATION, priority 2015, dated 2024):

Columns and labels:
Type in all cases: in vivo
[1] = tested on: wheat (Triticum aestivum); assay: Test A postemergence; conditions: Triticum aestivum, post-emergence, 240 h, Postemergence
Outline: (§1)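 Treatment is preemergence as a directed soil spray after planting, or postemergence at the one- to two-leaf stage, with test chemical in a non-phytotoxic solvent mixture plus surfactant. Plants stay in the greenhouse about 10 d before visual injury scoring on a 0 to 100 scale versus untreated controls.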

[2] = tested on: Galium (catchweed bedstraw, Galium aparine); assay: Test A postemergence; conditions: Galium, post-emergence, 240 h, Postemergence
Outline: as §1

corn (Zea mays) = assay: Test A postemergence; conditions: Zea mays, post-emergence, 240 h, Postemergence
Outline: as §1

[3] = tested on: pigweed (Amaranthus retroflexus); assay: Test A postemergence; conditions: Amaranthus retroflexus, post-emergence, 240 h, Postemergence
Outline: as §1

[4] = tested on: ragweed (common ragweed, Ambrosia elatior); assay: Test A postemergence; conditions: Ambrosia artemisiifolia, post-emergence, 240 h, Postemergence
Outline: as §1

[5] = tested on: giant foxtail (Setaria faberii); assay: Test A postemergence; conditions: Setaria faberi, post-emergence, 240 h, Postemergence
Outline: as §1

[6] = tested on: barnyardgrass (Echinochloa crus-galli); assay: Test A postemergence; conditions: Echinochloa crus-galli, post-emergence, 240 h, Postemergence
Outline: as §1

Kochia (Kochia scoparia) [7] = assay: Test A postemergence; conditions: Bassia scoparia, post-emergence, 240 h, Postemergence
Outline: as §1

[8] = tested on: ryegrass, Italian (Italian ryegrass, Lolium multiflorum); assay: Test A postemergence; conditions: Lolium multiflorum, post-emergence, 240 h, Postemergence
Outline: as §1

[9] = tested on: pigweed (Amaranthus retroflexus); assay: Test A preemergence; conditions: Amaranthus retroflexus, pre-emergence, 240 h, preemergence, 0 to 100 scale where 0 is no effect and 100 is complete control, read-out: Pigweed plant response rating
[10] = tested on: ragweed (common ragweed, Ambrosia elatior); assay: Test A preemergence; conditions: Ambrosia artemisiifolia, pre-emergence, 240 h, preemergence, 0 to 100 scale where 0 is no effect and 100 is complete control, read-out: Ragweed plant response rating
Outline: as §1

[11] = tested on: giant foxtail (Setaria faberii); assay: Test A preemergence; conditions: Setaria faberi, pre-emergence, 240 h, preemergence, 0 to 100 scale where 0 is no effect and 100 is complete control, read-out: Foxtail, Giant plant response rating
Outline: as §1

[12] = tested on: barnyardgrass (Echinochloa crus-galli); assay: Test A preemergence; conditions: Echinochloa crus-galli, pre-emergence, 240 h, preemergence, 0 to 100 scale where 0 is no effect and 100 is complete control, read-out: Barnyardgrass plant response rating
Outline: as §1

Kochia (Kochia scoparia) [13] = assay: Test A preemergence; conditions: Bassia scoparia, pre-emergence, 240 h, preemergence, 0 to 100 scale where 0 is no effect and 100 is complete control, read-out: Kochia plant response rating
Outline: as §1

[14] = tested on: ryegrass, Italian (Italian ryegrass, Lolium multiflorum); assay: Test A preemergence; conditions: Lolium multiflorum, pre-emergence, 240 h, preemergence, 0 to 100 scale where 0 is no effect and 100 is complete control, read-out: Ryegrass, Italian plant response rating
Outline: as §1

[15] = 125 g ai/ha, visual injury rating, approximately 10 d

**Q.** With `COc1cc([C@H]2CN(C)C(=O)[C@@H]2C(=O)Nc2cccc(F)c2F)ccc1F` [Compound 1299] as the molecule, how does the plant injury at 125 g/ha ([1]; 125 g ai/ha, visual rating about 10 d after treatment, read-out: Wheat plant response rating (0 to 100 scale)) read?
**A.** 30%

**Q.** What about the plant injury at 500 g/ha ([1]; 500 g ai/ha, visual injury, 0 to 100 scale (0 no effect, 100 complete control), approx. 10 d, read-out: Plant response rating, Wheat) of the same molecule?
**A.** 40%

**Q.** What about the pest or weed control at 125 g/ha ([2]; 125 g ai/ha, visual rating about 10 d after treatment, read-out: Galium plant response rating (0 to 100 scale)) of the same molecule?
**A.** 40%

**Q.** And the pest or weed control at 500 g/ha ([2]; 500 g ai/ha, visual injury, 0 to 100 scale (0 no effect, 100 complete control), approx. 10 d, read-out: Plant response rating, Galium)?
**A.** 50%

**Q.** What about the plant injury at 125 g/ha (corn (Zea mays); 125 g ai/ha, visual rating about 10 d after treatment, read-out: Corn plant response rating (0 to 100 scale)) of the same molecule?
**A.** 40%

**Q.** And the Corn plant response rating (crop injury, 0 = no effect, 100 = complete kill) at 500 g/ha (corn (Zea mays); 500 g ai/ha, visual injury, 0 to 100 scale (0 no effect, 100 complete control), approx. 10 d)?
**A.** 80%

**Q.** And the pest or weed control at 125 g/ha ([3]; 125 g ai/ha, visual rating about 10 d after treatment, read-out: Pigweed plant response rating (0 to 100 scale))?
**A.** 0%

**Q.** What about the pest or weed control at 500 g/ha ([3]; 500 g ai/ha, visual injury, 0 to 100 scale (0 no effect, 100 complete control), approx. 10 d, read-out: Plant response rating, Pigweed) of the same molecule?
**A.** 0%

**Q.** And the pest or weed control at 125 g/ha ([4]; 125 g ai/ha, visual rating about 10 d after treatment, read-out: Ragweed plant response rating (0 to 100 scale))?
**A.** 0%

**Q.** What about the pest or weed control at 500 g/ha ([4]; 500 g ai/ha, visual injury, 0 to 100 scale (0 no effect, 100 complete control), approx. 10 d, read-out: Plant response rating, Ragweed) of the same molecule?
**A.** 20%

**Q.** And the pest or weed control at 125 g/ha ([5]; 125 g ai/ha, visual rating about 10 d after treatment, read-out: Foxtail, Giant plant response rating (0 to 100 scale))?
**A.** 90%

**Q.** What about the pest or weed control at 500 g/ha ([5]; 500 g ai/ha, visual injury, 0 to 100 scale (0 no effect, 100 complete control), approx. 10 d, read-out: Plant response rating, Foxtail, Giant) of the same molecule?
**A.** 90%

**Q.** What about the pest or weed control at 125 g/ha ([6]; 125 g ai/ha, visual rating about 10 d after treatment, read-out: Barnyardgrass plant response rating (0 to 100 scale, 0 no effect, 100 complete control)) of the same molecule?
**A.** 90%

**Q.** What about the pest or weed control at 500 g/ha ([6]; 500 g ai/ha, visual injury, 0 to 100 scale (0 no effect, 100 complete control), approx. 10 d, read-out: Plant response rating, Barnyardgrass) of the same molecule?
**A.** 90%

**Q.** What about the pest or weed control at 125 g/ha (Kochia (Kochia scoparia) [7]; 125 g ai/ha, visual rating about 10 d after treatment, read-out: Kochia plant response rating (0 to 100 scale)) of the same molecule?
**A.** 0%

**Q.** And the pest or weed control at 500 g/ha (Kochia (Kochia scoparia) [7]; 500 g ai/ha, visual injury, 0 to 100 scale (0 no effect, 100 complete control), approx. 10 d, read-out: Plant response rating, Kochia)?
**A.** 60%

**Q.** And the pest or weed control at 125 g/ha ([8]; 125 g ai/ha, visual rating about 10 d after treatment, read-out: Ryegrass, Italian plant response rating (0 to 100 scale))?
**A.** 20%

**Q.** What about the pest or weed control at 500 g/ha ([8]; 500 g ai/ha, visual injury, 0 to 100 scale (0 no effect, 100 complete control), approx. 10 d, read-out: Plant response rating, Ryegrass, Italian) of the same molecule?
**A.** 60%

**Q.** What about the pest or weed control at 125 g/ha [9, 15] of the same molecule?
**A.** 20%

**Q.** What about the pest or weed control at 500 g/ha ([9]; 500 g ai/ha) of the same molecule?
**A.** 60%

**Q.** What about the pest or weed control at 125 g/ha [10, 15] of the same molecule?
**A.** 30%

**Q.** And the pest or weed control at 500 g/ha ([10]; 500 g ai/ha)?
**A.** 70%

**Q.** What about the pest or weed control at 125 g/ha [11, 15] of the same molecule?
**A.** 90%

**Q.** What about the pest or weed control at 500 g/ha ([11]; 500 g ai/ha) of the same molecule?
**A.** 90%

**Q.** And the pest or weed control at 125 g/ha [12, 15]?
**A.** 90%

**Q.** And the pest or weed control at 500 g/ha ([12]; 500 g ai/ha)?
**A.** 90%

**Q.** And the pest or weed control at 125 g/ha (Kochia (Kochia scoparia) [13]; [15])?
**A.** 70%

**Q.** What about the pest or weed control at 500 g/ha (Kochia (Kochia scoparia) [13]; 500 g ai/ha) of the same molecule?
**A.** 70%

**Q.** And the pest or weed control at 125 g/ha [14, 15]?
**A.** 30%

**Q.** What about the pest or weed control at 500 g/ha ([14]; 500 g ai/ha) of the same molecule?
**A.** 70%
